Results taken from patent US5211944A, “Proanthocyanidin polymers having antiviral activity and methods of obtaining same” (Shaman Pharmaceuticals, Inc., priority 1991, dated 1993).

Tests used:
Influenza viruses = details: cited from earlier work
[1] = tested on: Herpes Simplex Virus Type 2 (HSV-2); experiment: HSV-2 vaginitis in mice, intraperitoneal treatment; format: in vivo, Swiss Webster mice; details: 30 mg/kg/day i.p.
[2] = Uninfected toxicity controls, i.p. treatment (HSV-2 study); format: in vivo, Swiss Webster mice; details: 30 mg/kg/day i.p.
Experimental: Six hours after virus infection, intraperitoneal (i.p.) injections were administered using proanthocyanidin polymer A, ganciclovir, or placebo. Treatments were also given i.p. twice daily on days 1 through 7 after virus challenge. The daily dose of each compound was 30 mg/kg/day, with 15 mg/kg given at each injection. Since on day 0 of the infection only one dose was given, the daily dose for that day was 15 mg/kg/day.
(§1) Groups of 5 mice were sham-infected using the process described above for virus infection, except that no virus was present for the final step. These mice were treated the same way and at the same times as above. Mice were checked daily for survival, and weights were recorded before the first (day 0) and after the last (day 8) treatment.

Herpes Simplex virus [3] = details: Beladi et al., 1977; in vitro; cited from earlier work
[4] = tested on: Herpes Simplex Virus Type 2 (HSV-2); experiment: HSV-2 vaginitis in mice, topical treatment; format: in vivo, Swiss Webster mice
[5] = Uninfected toxicity controls, topical treatment (HSV-2 study); format: in vivo, Swiss Webster mice; details: 5% topical
Experimental: as §1
The efficacy of proanthocyanidin polymer A is compared with ganciclovir and acyclovir. Both ganciclovir powder and acyclovir cream were obtained commercially. Squibb cream base #8, which served as a vehicle and as the topical placebo control, was also commercially obtained.
The methods of infecting the mice, setting toxicity control and the parameters measured to evaluate the infection were the same as described above for the intraperitoneal tests. Topical treatments on the day of infection were given at +6 hours. They were then given twice daily for 7 more days.

Herpes simplex virus [6] = details: cited from earlier work
Herpes Simplex virus [7] = details: HEp-2 cells; Beladi et al.; cited from earlier work

## CC(N)C12CC3CC(CC(C3)C1)C2 (racemic) [Rimantidine]
Influenza viruses
  central nervous system side effects: not associated with the central nervous system side-effects
  effect on fever duration and respiratory symptoms, versus amantadine: shows a similar effect

## Nc1nc(O)c2ncn(COC(CO)CO)c2n1 [Ganciclovir]
[1]; day 3
  Average Lesion Score: 0.1 ± 0.2
[1]; day 4
  Average Lesion Score: 0.2 ± 0.2
[1]; day 5
  Average Lesion Score: 0.2 ± 0.2
[1]; day 6
  Average Lesion Score: 0.2 ± 0.2
[1]; day 7
  Average Lesion Score: 0.2 ± 0.2
[1]; day 8
  Average Lesion Score: 0.3 ± 0.4
[1]; day 9
  Average Lesion Score: 0.4 ± 0.3
[1]; day 10
  Average Lesion Score: 0.5 ± 0.5
[1]; day 12
  Average Lesion Score: 0.9 ± 0.2
[1]; day 13
  Average Lesion Score: 0.6 ± 0.6
[1]; day 14
  Average Lesion Score: 0.6 ± 0.6
[1]; days 3-14
  Average Lesion Score, Grand Avg.: 0.4 ± 0.2
[1]; vaginal swab
  Virus Titer (Day 3): 1.7 ± 1.0 Log10 50% cell culture infectious dose per ml
[1]; virus-infected
  Mean Day to Death: > 21 days
  Survivors (%): 100%
  Survivors/Total: 10/10
[2]
  tolerability in toxicity control mice: gained less weight than placebo controls
[2]; day 8 minus day 0
  Host Wt. Change: +1.0 grams
[2]; uninfected toxicity controls
  Mean Day to Death: > 21 days
  Survivors/Total: 5/5
[2]; mouse, in vivo, ip, uninfected toxicity controls, read-out: Survivors (%)
  survival: 100%

## O=c1cc(-c2ccc(O)cc2)oc2cc(O)cc(O)c12 [Apigenin]
Herpes Simplex virus [3]
  virus-inactivating (viricidal) activity: only a slight effect

## Nc1nc2c(ncn2COCCO)c(=O)[nH]1 [Acyclovir]
[4]; 5% cream
  lesion formation in infected animals: nearly completely prevented lesion formation
[4]; 5% topical, day 3
  Average Lesion Score: 0.2 ± 0.2
[4]; 5% topical, day 4
  Average Lesion Score: 0.1 ± 0.2
[4]; 5% topical, day 5
  Average Lesion Score: 0.0 ± 0.0
[4]; 5% topical, day 6
  Average Lesion Score: 0.0 ± 0.0
[4]; 5% topical, day 7
  Average Lesion Score: 0.0 ± 0.0
[4]; 5% topical, day 8
  Average Lesion Score: 0.1 ± 0.2
[4]; 5% topical, day 9
  Average Lesion Score: 0.0 ± 0.0
[4]; 5% topical, day 10
  Average Lesion Score: 0.0
[4]; 5% topical, day 11
  Average Lesion Score: 0.0 ± 0.0
[4]; 5% topical, day 12
  Average Lesion Score: 0.0 ± 0.0
[4]; 5% topical, day 13
  Average Lesion Score: 0.0 ± 0.0
[4]; 5% topical, day 14
  Average Lesion Score: 0.0 ± 0.0
[4]; 5% topical, day 14 of the infection
  No. of Mice W/O Lesion: 10/10
[4]; 5% topical, vaginal
  Virus Titer (Day 2): 0.6 ± 0.2 Log 10 50% cell culture infectious dose per ml
[4]; 5% topical, virus-infected
  Mean Day to Death: > 21 days
  Survivors (%): 100%
  Survivors/Total: 10/10
[5]; day 8 minus day 0
  Host Wt. Change: +2.0 grams
[5]; uninfected toxicity controls
  Mean Day to Death: > 21 days
  Survivors/Total: 5/5
[5]; mouse, in vivo, topical or ocular, uninfected toxicity controls, read-out: Survivors (%)
  survival: 100%
Herpes simplex virus [6]
  topical effectiveness: not effective topically when used against recurrent genital infections

## O=c1c(O)c(-c2ccc(O)c(O)c2)oc2cc(O)cc(O)c12 [quercetin]
Herpes Simplex virus [7]
  inhibitory effect on virus multiplication: only a slight inhibitory effect on virus multiplication

## Nc1ncnc2c1ncn2[C@@H]1O[C@H](CO)[C@@H](O)[C@@H]1O [Vidarabine, adenine arabinoside]
Herpes simplex virus [6]
  topical effectiveness: not effective topically against herpes labialis or other skin/genital infections
